Measurements published in patent US20230056205A1, “SUBSTITUTED 4,6-DIHYDROSPIRO[[1,2,3]TRIAZOLO[4,5-B]PYRIDINE-7,3'-INDOLINE]-2',5(3H)-DIONE ANALOGUES” (The Board of Regents of The University of Texas System, priority 2019, published 2023).
Read-outs that look alike come from different tables or passages of the source.

Legend:
DENV-1 replicon = assay: Luciferase reporter replicon-based screening, DENV-1; assay type: cell-based, DENV-1 (strain WestPac); settings: Dengue virus, DENV1, Huh-7, 48 h, read-out: EC50 DENV-1
Protocol: (§1) Luciferase Reporter Replicon-Based Screening. Huh7 cells containing a luciferase reporter replicon of DENV-1 (strain WestPac), DENV-2 (New Guinea C strain, NGC), DENV-3 (strain D3MY05-34640) and DENV-4 (strain D4MY01-22713) were used in this study. The replicon cells containing the Renilla luciferase and neomycin-resistance genes were generated using a similar strategy as described previously.^55 Briefly, Huh7 DENV-1 to -4 replicon cells were seeded at a density of 10k per well in a 96-well microplate. After incubation at 37° C. with 5% CO2 overnight, the cells were treated with 2-fold serial dilutions of compounds. Experiments were performed in duplicates. After 48 h of incubation, luciferase activities were measured using the EnduRen live-cell substrate (Promega) by following the manufacturer’s instructions. The dose-dependent curve was plotted and EC50 values were calculated using four parameter logistic regression in GraphPad software Prism 8.0.

DENV-4 replicon = assay: Luciferase reporter replicon-based screening, DENV-4; assay type: cell-based, DENV-4 (strain D4MY01-22713); settings: Dengue virus, DENV4, Huh-7, 48 h, read-out: EC50 DENV-4
Protocol: as §1

[1] = Cytotoxicity assay (CellTiter-Glo); assay type: cell-based; settings: human, Huh7 cells stably expressing DENV-2 replicon
Protocol: Cytotoxicity Assay. Huh7 cells or Huh7 replicon cells were seeded in a 96-well plate. After incubation at 37° C. with 5% CO2 overnight, the cells were treated with 2-fold serial dilutions of compounds. Experiments were performed in duplicates. After 48 h of incubation, cell viability was measured by adding the CellTiter-Glo reagent (Promega) to each well. The cell viability in 0.45% DMSO-treatment groups was treated at 100%. The cell viability in compound-treated wells was normalized to that of DMSO-treated wells. CC50 values were calculated using four parameter logistic regression in GraphPad software Prism 8.0.

DENV-3 replicon = assay: Luciferase reporter replicon-based screening, DENV-3; assay type: cell-based, DENV-3 (strain D3MY05-34640)
Protocol: as §1

DENV-2 replicon = assay: Luciferase reporter replicon-based screening, DENV-2; assay type: cell-based, DENV-2 (New Guinea C strain, NGC)
Protocol: as §1

[2] = Dengue virus, DENV3, Huh-7, 48 h, read-out: EC50 DENV-3, Huh7 cells stably expressing DENV-3 replicon, 48 h
[3] = Dengue virus, DENV2, Huh-7, 48 h, read-out: EC50 DENV-2, Huh7 cells stably expressing DENV-2 replicon, 48 h
[4] = read-out: EC50 DENV-2, Huh7 cells stably expressing DENV-2 replicon, 48 h

| SMILES | EC50 (DENV-1 replicon) [nM] | EC50 (DENV-4 replicon) [nM] | CC50 at 48 h [1] [nM] | EC50 (DENV-3 replicon; [2]) [nM] | EC50 (DENV-2 replicon; [3]) [nM] | EC50 (DENV-2 replicon; [4]) [nM] | EC50 (DENV-3 replicon; read-out: EC50 DENV-3, Huh7 cells stably expressing DENV-3 replicon, 48 h) [nM] |
| --- | --- | --- | --- | --- | --- | --- | --- |
| C[C@@H](c1ccc(Cl)cc1)n1nnc2c1NC(=O)C[C@]21C(=O)Nc2ccc(Cl)cc21 [Compound 1a, (R)-5'-Chloro-3-((S)-1-(4-chlorophenyl)ethyl)-4,6-dihydrospiro[[1,2,3]triazolo[4,5-b]pyridine-7,3'-indoline]-2',5(3H)-dione] | > 5000 | > 5000 | > 10000 | 10 | 39 |  |  |
| C[C@@H](c1ccc(Cl)cc1)n1nnc2c1NC(=O)C[C@]21C(=O)N(C)c2ccc(Cl)cc21 [Compound 7, (R)-5'-Chloro-3-((S)-1-(4-chlorophenyl)ethyl)-1'-methyl-4,6-dihydrospiro[[1,2,3]triazolo[4,5-b]pyridine-7,3'-indoline]-2',5(3H)-dione] | > 5000 | > 5000 | > 10000 | 4 | 19 |  |  |
| CCN1C(=O)[C@]2(CC(=O)Nc3c2nnn3[C@@H](C)c2ccc(Cl)cc2)c2cc(Cl)ccc21 [Compound 8, (R)-5'-Chloro-3-((S)-1-(4-chlorophenyl)ethyl)-1'-ethyl-4,6-dihydrospiro[[1,2,3]triazolo[4,5-b]pyridine-7,3'-indoline]-2',5(3H)-dione] | 2500 | > 5000 | > 10000 | 6 | 24 |  |  |
| CCCN1C(=O)[C@]2(CC(=O)Nc3c2nnn3[C@@H](C)c2ccc(Cl)cc2)c2cc(Cl)ccc21 [Compound 9, (R)-5'-Chloro-3-((S)-1-(4-chlorophenyl)ethyl)-1'-propyl-4,6-dihydrospiro[[1,2,3]triazolo[4,5-b]pyridine-7,3'-indoline]-2',5(3H)-dione] | 1900 | > 5000 | > 10000 | 10 | 71 |  |  |
| CCCCN1C(=O)[C@]2(CC(=O)Nc3c2nnn3[C@@H](C)c2ccc(Cl)cc2)c2cc(Cl)ccc21 [Compound 10, (R)-1'-Butyl-5'-chloro-3-((S)-1-(4-chlorophenyl)ethyl)-4,6-dihydrospiro[[1,2,3]triazolo[4,5-b]pyridine-7,3'-indoline]-2',5(3H)-dione] | 1300 | > 5000 | > 10000 | 18 | 75 |  |  |
| CCCCCCN1C(=O)[C@]2(CC(=O)Nc3c2nnn3[C@@H](C)c2ccc(Cl)cc2)c2cc(Cl)ccc21 [Compound 11, (R)-5'-Chloro-3-((S)-1-(4-chlorophenyl)ethyl)-1'-hexyl-4,6-dihydrospiro[[1,2,3]triazolo[4,5-b]pyridine-7,3'-indoline]-2',5(3H)-dione] | 830 | > 5000 | > 10000 | 140 | 810 |  |  |
| CCCCCCCCCCN1C(=O)[C@]2(CC(=O)Nc3c2nnn3[C@@H](C)c2ccc(Cl)cc2)c2cc(Cl)ccc21 [Compound 12, (R)-5'-Chloro-3-((S)-1-(4-chlorophenyl)ethyl)-1'-decyl-4,6-dihydrospiro[[1,2,3]triazolo[4,5-b]pyridine-7,3'-indoline]-2ʹ,5(3H)-dione] | 3400 | 7300 | > 10000 | 1200 | > 10000 |  |  |
| CC(C)N1C(=O)[C@]2(CC(=O)Nc3c2nnn3[C@@H](C)c2ccc(Cl)cc2)c2cc(Cl)ccc21 [Compound 13, (R)-5'-Chloro-3-((S)-1-(4-chlorophenyl)ethyl)-1'-isopropyl-4,6-dihydrospiro[[1,2,3]triazolo[4,5-b]pyridine-7,3ʹ-indoline]-2',5(3H)-dione] | 5700 | > 5000 | > 10000 | 9 | 23 |  |  |
| CC(C)CN1C(=O)[C@]2(CC(=O)Nc3c2nnn3[C@@H](C)c2ccc(Cl)cc2)c2cc(Cl)ccc21 [Compound 14, (R)-5'-Chloro-3-((S)-1-(4-chlorophenyl)ethyl)-1'-isobutyl-4,6-dihydrospiro[[1,2,3]triazolo[4,5-b]pyridine-7,3'-indoline]-2',5(3H)-dione] | 1300 | > 5000 | > 10000 | 20 | 150 |  |  |
| C[C@@H](c1ccc(Cl)cc1)n1nnc2c1NC(=O)C[C@]21C(=O)N(Cc2ccc(F)cc2)c2ccc(Cl)cc21 [Compound 25, (R)-5'-Chloro-3-((S)-1-(4-chlorophenyl)ethyl)-1'-(4-fluorobenzyl)-4,6-dihydrospiro[[1,2,3]triazolo[4,5-b]pyridine-7,3'-indoline]-2',5(3H)-dione] | 5000 | 10000 | > 10000 |  | 140 to 290 | 160 |  |
| C[C@@H](c1ccc(Cl)cc1)n1nnc2c1NC(=O)C[C@]21C(=O)N(Cc2cccc(F)c2)c2ccc(Cl)cc21 [Compound 26, (R)-5'-Chloro-3-((S)-1-(4-chlorophenyl)ethyl)-1'-(3-fluorobenzyl)-4,6-dihydrospiro[[1,2,3]triazolo[4,5-b]pyridine-7,3'-indoline]-2',5(3H)-dione] | 10000 | > 5000 | > 10000 |  |  |  |  |
| COCOCCN1C(=O)[C@]2(CC(=O)Nc3c2nnn3[C@@H](C)c2ccc(Cl)cc2)c2cc(Cl)ccc21 [Compound 38, (R)-5'-Chloro-3-((S)-1-(4-chlorophenyl)ethyl)-1'-(2-(methoxymethoxy)ethyl)-4,6-dihydrospiro[[1,2,3]triazolo[4,5-b]pyridine-7,3'-indoline]-2',5(3H)-dione] | > 5000 | > 5000 | > 10000 |  |  |  |  |
| CCOC(CN1C(=O)[C@]2(CC(=O)Nc3c2nnn3[C@@H](C)c2ccc(Cl)cc2)c2cc(Cl)ccc21)OCC [Compound 41, (R)-5'-Chloro-3-((S)-1-(4-chlorophenyl)ethyl)-1'-(2,2-diethoxyethyl)-4,6-dihydrospiro[[1,2,3]triazolo[4,5-b]pyridine-7,3ʹ-indoline]-2',5(3H)-dione] | > 5000 | > 5000 | > 10000 |  |  |  |  |
| COC(=O)CN1C(=O)[C@]2(CC(=O)Nc3c2nnn3[C@@H](C)c2ccc(Cl)cc2)c2cc(Cl)ccc21 [Compound 43, Methyl 2-((R)-5'-chloro-3-((S)-1-(4-chlorophenyl)ethyl)-2',5-dioxo-3,4,5,6-tetrahydrospiro[[1,2,3]triazolo[4,5-b]pyridine-7,3'-indolin]-1'-yl)acetate] | > 5000 | > 5000 | > 10000 | 9 to 76 |  |  | 11 |
| C[C@@H](c1ccc(Cl)cc1)n1nnc2c1NC(=O)C[C@]21C(=O)N(CC(=O)O)c2ccc(Cl)cc21 [Compound 45, 2-((R)-5'-Chloro-3-((S)-1-(4-chlorophenyl)ethyl)-2',5-dioxo-3,4,5,6-tetrahydrospiro[[1,2,3]triazolo[4,5-b]pyridine-7,3'-indolin]-1ʹ-yl)acetic acid] |  |  | > 10000 |  | 2400 |  |  |
| C[C@@H](c1ccc(Cl)cc1)n1nnc2c1NC(=O)C[C@]21C(=O)N(CCCCCl)c2ccc(Cl)cc21 [Compound 48, (R)-5'-Chloro-1'-(4-chlorobutyl)-3-((S)-1-(4-chlorophenyl)ethyl)-4,6-dihydrospiro[[1,2,3]triazolo[4,5-b]pyridine-7,3'-indoline]-2',5(3H)-dione] | > 5000 | > 5000 | > 10000 |  | 37 to 290 | 73 |  |
| C[C@@H](c1ccc(Cl)cc1)n1nnc2c1NC(=O)C[C@]21C(=O)N(CCCCCCBr)c2ccc(Cl)cc21 [Compound 49, (R)-1'-(6-Bromohexyl)-5'-chloro-3-((S)-1-(4-chlorophenyl)ethyl)-4,6-dihydrospiro[[1,2,3]triazolo[4,5-b]pyridine-7,3'-indoline]-2ʹ,5(3H)-dione] |  |  | > 10000 |  | 3000 |  |  |
| C[C@@H](c1ccc(Cl)cc1)n1nnc2c1NC(=O)C[C@]21C(=O)N(CCCCCCCCBr)c2ccc(Cl)cc21 [Compound 50, (R)-1'-(8-bromooctyl)-5'-chloro-3-((S)-1-(4-chlorophenyl)ethyl)-4,6-dihydrospiro[[1,2,3]triazolo[4,5-b]pyridine-7,3'-indoline]-2',5(3H)-dione] |  |  | > 10000 |  | > 5000 |  |  |
